Experimental data reported in ChEMBL document CHEMBL3763146 (J Med Chem, 2016).
Values belong to the compound of their own block, whether it stands above or below them.

Legend:
[1] = target: Voltage-dependent L-type calcium channel subunit alpha-1C (Homo sapiens, UniProt Q13936); experiment: Displacement of [3H]-diltiazem from human Cav1.2 channel
[2] = Intrinsic clearance in dog liver microsomes; assay type: ADME, Canis lupus familiaris; conditions: read-out: CLH
[3] = tested on: Canis familiaris; experiment: Dose normalized total AUC in dog at 2 mg/kg, po; assay type: ADME, organism-based, Canis lupus familiaris; conditions: in vivo
[4] = Half life in dog at 0.5 mg/kg, iv or 2 mg/kg, po; assay type: ADME, organism-based, Canis lupus familiaris; conditions: in vivo
[5] = Plasma clearance in rat at 1 mg/kg, iv or 2 mg/kg, po; assay type: ADME, organism-based
[6] = tested on: Rattus norvegicus; experiment: Dose normalized total AUC in rat at 2 mg/kg, po; assay type: ADME, organism-based; conditions: in vivo
[7] = Half life in rat at 1 mg/kg, iv or 2 mg/kg, po; assay type: ADME, organism-based; conditions: in vivo
[8] = target: Sodium-dependent dopamine transporter (Homo sapiens, UniProt Q01959); experiment: Inhibition of human dopamine transporter
[9] = Stability in rat plasma assessed as parent compound remaining at 24 hrs by LC-MS analysis; assay type: ADME, cell-free; conditions: read-out: Stability
[10] = Intrinsic clearance in rhesus monkey liver microsomes; assay type: ADME, Macaca mulatta; conditions: read-out: CLH
[11] = Intrinsic clearance in human liver microsomes; assay type: ADME; conditions: read-out: CLH
[12] = Oral bioavailability in rat at 2 mg/kg; assay type: ADME, organism-based; conditions: in vivo
[13] = target: Beta-2 adrenergic receptor (Homo sapiens, UniProt P07550)
Sequence of Beta-2 adrenergic receptor (P07550 whole entry): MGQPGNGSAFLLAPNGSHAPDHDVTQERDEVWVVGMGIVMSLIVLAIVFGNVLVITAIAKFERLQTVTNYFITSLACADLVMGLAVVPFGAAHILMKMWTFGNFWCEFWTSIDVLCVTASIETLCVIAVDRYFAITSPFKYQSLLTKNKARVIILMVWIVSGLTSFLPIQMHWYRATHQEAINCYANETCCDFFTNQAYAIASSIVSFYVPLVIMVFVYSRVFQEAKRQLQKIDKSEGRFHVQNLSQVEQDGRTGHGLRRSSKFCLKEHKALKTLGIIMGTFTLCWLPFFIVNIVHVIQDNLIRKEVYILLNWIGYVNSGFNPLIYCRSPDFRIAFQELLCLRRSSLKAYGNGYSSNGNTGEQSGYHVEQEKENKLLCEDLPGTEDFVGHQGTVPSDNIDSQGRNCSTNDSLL
Description: Displacement of [125]I-cyanopindolol from human recombinant beta2 adrenergic receptor after 1 hr by scintillation counting method

[14] = target: Sodium-dependent serotonin transporter (Homo sapiens, UniProt P31645); experiment: Inhibition of human SERT expressed in HEK293 cells preincubated for 30 mins followed by fluorescent substrate addition measured after 30 mins by plate reader analysis; assay type: cell-based
Sequence of Sodium-dependent serotonin transporter (P31645 whole entry): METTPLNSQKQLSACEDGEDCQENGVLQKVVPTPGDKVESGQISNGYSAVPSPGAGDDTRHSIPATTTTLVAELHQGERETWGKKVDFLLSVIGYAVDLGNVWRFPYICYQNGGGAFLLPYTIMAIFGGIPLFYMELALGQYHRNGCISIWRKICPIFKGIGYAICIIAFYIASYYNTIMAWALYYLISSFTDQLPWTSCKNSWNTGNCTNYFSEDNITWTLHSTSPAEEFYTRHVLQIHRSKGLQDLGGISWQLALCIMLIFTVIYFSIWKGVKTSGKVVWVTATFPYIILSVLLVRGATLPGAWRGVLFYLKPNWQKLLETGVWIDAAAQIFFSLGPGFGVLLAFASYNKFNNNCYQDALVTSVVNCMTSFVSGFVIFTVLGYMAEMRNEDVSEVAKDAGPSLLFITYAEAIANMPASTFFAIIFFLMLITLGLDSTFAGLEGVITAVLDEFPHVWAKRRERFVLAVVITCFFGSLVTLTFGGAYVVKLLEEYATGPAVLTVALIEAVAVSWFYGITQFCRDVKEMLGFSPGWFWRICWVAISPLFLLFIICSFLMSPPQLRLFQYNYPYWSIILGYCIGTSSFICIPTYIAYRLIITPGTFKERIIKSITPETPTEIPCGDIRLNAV

[15] = Stability in rhesus monkey plasma assessed as parent compound remaining at 24 hrs by LC-MS analysis; assay type: ADME, cell-free, Macaca mulatta; conditions: read-out: Stability
[16] = target: T1, Beta-3 adrenergic receptor (Homo sapiens, UniProt P13945); experiment: Agonist activity at human beta3 adrenergic receptor expressed in CHO cells assessed as accumulation of cAMP after 30 mins by TR-FRET assay relative to (R)-(-)-isoproterenol; assay type: functional, cell-based
Target sequence in this assay (P13945 whole entry, looked up): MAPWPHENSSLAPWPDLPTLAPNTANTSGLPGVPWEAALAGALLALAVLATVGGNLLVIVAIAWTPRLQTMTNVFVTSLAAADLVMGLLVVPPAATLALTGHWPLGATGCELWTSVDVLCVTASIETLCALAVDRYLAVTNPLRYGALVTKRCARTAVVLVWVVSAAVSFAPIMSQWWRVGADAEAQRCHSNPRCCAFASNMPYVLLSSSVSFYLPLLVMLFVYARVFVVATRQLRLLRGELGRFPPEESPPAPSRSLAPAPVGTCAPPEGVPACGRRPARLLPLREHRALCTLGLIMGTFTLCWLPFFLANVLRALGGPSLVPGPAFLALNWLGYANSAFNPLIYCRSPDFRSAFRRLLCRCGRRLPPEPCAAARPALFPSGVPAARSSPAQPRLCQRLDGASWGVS

[17] = Oral bioavailability in dog at 2 mg/kg; assay type: ADME, organism-based, Canis lupus familiaris; conditions: in vivo
[18] = Stability in human plasma assessed as parent compound remaining at 24 hrs by LC-MS analysis; assay type: ADME, cell-free; conditions: read-out: Stability
[19] = Stability in dog plasma assessed as parent compound remaining at 24 hrs by LC-MS analysis; assay type: ADME, cell-free, Canis lupus familiaris; conditions: read-out: Stability
[20] = Plasma clearance in dog at 0.5 mg/kg, iv or 2 mg/kg, po; assay type: ADME, organism-based, Canis lupus familiaris
[21] = target: Beta-1 adrenergic receptor (Homo sapiens, UniProt P08588)
Sequence of Beta-1 adrenergic receptor (P08588 whole entry): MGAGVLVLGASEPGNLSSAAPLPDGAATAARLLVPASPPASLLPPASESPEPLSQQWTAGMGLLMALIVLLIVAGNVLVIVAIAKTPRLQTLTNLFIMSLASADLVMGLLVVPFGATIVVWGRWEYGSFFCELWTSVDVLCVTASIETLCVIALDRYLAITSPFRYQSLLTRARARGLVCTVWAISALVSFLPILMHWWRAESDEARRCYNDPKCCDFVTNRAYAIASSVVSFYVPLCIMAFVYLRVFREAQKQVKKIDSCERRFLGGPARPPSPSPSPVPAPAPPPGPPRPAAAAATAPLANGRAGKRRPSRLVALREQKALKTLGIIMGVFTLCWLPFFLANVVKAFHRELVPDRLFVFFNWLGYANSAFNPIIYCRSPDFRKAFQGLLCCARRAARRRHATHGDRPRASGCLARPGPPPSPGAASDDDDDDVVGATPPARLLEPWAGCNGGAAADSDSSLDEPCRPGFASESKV
Description: Displacement of [125]I-cyanopindolol from recombinant human beta1 adrenergic receptor after 1 hr by scintillation counting method

[22] = target: T1, Beta-3 adrenergic receptor; experiment: Agonist activity at human beta3 adrenergic receptor expressed in CHO cells assessed as accumulation of cAMP after 30 mins by TR-FRET assay; assay type: functional, cell-based
Target sequence in this assay (P13945 whole entry): as the sequence (P13945 whole entry, looked up) above

[23] = target: Sodium channel protein type 2 subunit alpha (Homo sapiens, UniProt Q99250); experiment: Inhibition of human Nav1.2 channel expressed in Xenopus oocytes by two-intracellular microelectrode voltage clamp method; assay type: cell-based
Sequence of Sodium channel protein type 2 subunit alpha (Q99250 whole entry, looked up): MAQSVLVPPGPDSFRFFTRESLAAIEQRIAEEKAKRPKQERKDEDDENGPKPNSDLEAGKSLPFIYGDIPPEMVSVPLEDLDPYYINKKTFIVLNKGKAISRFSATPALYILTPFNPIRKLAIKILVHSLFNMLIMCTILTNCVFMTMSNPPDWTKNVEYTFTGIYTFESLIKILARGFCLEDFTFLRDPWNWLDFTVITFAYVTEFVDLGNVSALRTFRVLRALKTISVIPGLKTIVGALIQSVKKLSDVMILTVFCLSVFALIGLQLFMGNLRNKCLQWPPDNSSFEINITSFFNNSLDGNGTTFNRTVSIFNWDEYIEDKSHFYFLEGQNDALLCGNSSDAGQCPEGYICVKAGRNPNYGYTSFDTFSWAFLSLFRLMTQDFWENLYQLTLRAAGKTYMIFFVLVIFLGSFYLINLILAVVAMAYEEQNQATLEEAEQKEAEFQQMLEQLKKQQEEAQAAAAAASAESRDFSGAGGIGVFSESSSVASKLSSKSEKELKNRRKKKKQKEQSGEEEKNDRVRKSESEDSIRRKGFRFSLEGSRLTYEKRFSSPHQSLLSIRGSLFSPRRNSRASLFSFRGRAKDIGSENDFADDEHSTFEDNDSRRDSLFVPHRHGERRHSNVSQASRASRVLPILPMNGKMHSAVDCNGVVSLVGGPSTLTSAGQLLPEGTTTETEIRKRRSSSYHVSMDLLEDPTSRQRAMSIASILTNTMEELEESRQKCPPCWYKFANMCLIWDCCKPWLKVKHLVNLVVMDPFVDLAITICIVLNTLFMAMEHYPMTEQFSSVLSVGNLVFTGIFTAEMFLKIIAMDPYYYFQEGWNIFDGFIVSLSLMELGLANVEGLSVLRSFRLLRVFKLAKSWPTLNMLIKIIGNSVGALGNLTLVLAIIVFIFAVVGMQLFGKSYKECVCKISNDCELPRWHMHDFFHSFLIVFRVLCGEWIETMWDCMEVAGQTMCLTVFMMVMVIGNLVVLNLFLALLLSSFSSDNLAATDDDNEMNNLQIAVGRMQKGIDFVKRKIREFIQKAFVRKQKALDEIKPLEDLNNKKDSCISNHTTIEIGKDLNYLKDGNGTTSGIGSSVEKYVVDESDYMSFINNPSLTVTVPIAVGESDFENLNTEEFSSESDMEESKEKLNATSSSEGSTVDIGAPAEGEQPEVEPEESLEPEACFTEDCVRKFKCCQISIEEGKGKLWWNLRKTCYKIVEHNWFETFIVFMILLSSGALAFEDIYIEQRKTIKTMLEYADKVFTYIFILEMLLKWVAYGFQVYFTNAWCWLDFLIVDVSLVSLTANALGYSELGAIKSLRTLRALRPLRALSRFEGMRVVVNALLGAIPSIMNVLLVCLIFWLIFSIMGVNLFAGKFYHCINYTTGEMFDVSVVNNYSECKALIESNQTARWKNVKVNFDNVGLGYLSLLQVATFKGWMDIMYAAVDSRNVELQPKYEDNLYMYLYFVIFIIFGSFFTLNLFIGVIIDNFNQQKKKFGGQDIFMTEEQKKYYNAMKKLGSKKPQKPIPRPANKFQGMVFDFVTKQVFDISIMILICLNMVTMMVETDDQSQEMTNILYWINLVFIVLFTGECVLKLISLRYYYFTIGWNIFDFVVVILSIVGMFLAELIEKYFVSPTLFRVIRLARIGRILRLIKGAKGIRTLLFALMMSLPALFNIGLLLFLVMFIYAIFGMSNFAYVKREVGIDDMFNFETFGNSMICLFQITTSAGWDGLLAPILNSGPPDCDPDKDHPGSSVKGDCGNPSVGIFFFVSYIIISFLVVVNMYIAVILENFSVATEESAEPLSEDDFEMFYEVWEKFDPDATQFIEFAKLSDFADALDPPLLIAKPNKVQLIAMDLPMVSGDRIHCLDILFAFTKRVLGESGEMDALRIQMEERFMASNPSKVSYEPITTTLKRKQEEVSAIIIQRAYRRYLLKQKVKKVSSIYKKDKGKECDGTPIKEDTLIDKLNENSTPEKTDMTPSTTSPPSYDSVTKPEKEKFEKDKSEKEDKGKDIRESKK

[24] = Induction of phospholidosis in human HepG2 cells incubated overnight by […] in presence of fluorescent labeled phospholipid probe NBD-PE; assay type: cell-based; conditions: read-out: A50
[25] = Intrinsic clearance in rat liver microsomes; assay type: ADME; conditions: read-out: CLH
[26] = tested on: Rattus norvegicus; experiment: Unbound clearance in rat at 1 mg/kg, iv or 2 mg/kg, po; assay type: ADME, organism-based; conditions: in vivo
[27] = tested on: Rhesus monkey; experiment: Dose normalized total AUC in rhesus monkey at 2 mg/kg, po; assay type: ADME, organism-based, Macaca mulatta; conditions: in vivo
[28] = Fraction unbound in rat at 1 mg/kg, iv or 2 mg/kg, po; assay type: ADME, organism-based; conditions: in vivo
[29] = target: T2, Beta-3 adrenergic receptor (Rattus norvegicus, UniProt P26255); experiment: Agonist activity at rat beta3 adrenergic receptor expressed in CHO cells assessed as accumulation of cAMP after 30 mins by TR-FRET assay; assay type: functional, cell-based
T2 sequence (P26255 whole entry): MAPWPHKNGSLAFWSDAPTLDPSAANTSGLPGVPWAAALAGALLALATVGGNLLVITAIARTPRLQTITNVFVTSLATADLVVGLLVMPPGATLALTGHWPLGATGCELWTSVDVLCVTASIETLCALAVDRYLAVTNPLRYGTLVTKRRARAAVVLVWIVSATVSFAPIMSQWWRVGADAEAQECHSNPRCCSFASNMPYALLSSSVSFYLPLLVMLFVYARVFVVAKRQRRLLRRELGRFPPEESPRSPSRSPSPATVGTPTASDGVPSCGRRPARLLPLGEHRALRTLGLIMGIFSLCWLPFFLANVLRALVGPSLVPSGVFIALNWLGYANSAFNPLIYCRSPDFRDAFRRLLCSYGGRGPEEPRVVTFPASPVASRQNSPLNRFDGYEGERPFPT

[30] = target: T2, Beta-3 adrenergic receptor; experiment: Agonist activity at rat beta3 adrenergic receptor expressed in CHO cells assessed as accumulation of cAMP after 30 mins by TR-FRET assay in presence of 40% serum; assay type: functional, cell-based
[31] = target: Beta-3 adrenergic receptor (Macaca mulatta) (UniProt Q28524); experiment: Agonist activity at rhesus monkey beta3 adrenergic receptor expressed in CHO cells assessed as accumulation of cAMP after 30 mins by TR-FRET assay in presence of 40% serum relative to (R)-(-)-isoproterenol; assay type: functional, cell-based
Sequence of Beta-3 adrenergic receptor (Macaca mulatta) (Q28524 whole entry): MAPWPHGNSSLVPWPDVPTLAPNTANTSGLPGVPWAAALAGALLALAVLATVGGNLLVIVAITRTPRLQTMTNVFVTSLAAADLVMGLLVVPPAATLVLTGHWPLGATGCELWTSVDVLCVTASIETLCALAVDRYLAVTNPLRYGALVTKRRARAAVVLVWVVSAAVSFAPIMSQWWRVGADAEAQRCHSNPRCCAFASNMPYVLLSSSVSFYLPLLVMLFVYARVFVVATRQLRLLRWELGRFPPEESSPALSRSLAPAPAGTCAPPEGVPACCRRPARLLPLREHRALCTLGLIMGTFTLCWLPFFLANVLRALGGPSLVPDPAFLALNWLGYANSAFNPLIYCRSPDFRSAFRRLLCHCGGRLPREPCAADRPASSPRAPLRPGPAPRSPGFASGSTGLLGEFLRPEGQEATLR

[32] = Plasma clearance in rhesus monkey at 0.5 mg/kg, iv or 2 mg/kg, po; assay type: ADME, organism-based, Macaca mulatta
[33] = Distribution coefficient, logD of the compound at pH 7.4; assay type: physicochemical; conditions: octanol/water
[34] = tested on: Rattus norvegicus; experiment: Increase in detrusor muscle relaxation in iv infused Sprague-Dawley rat acetic acid-induced bladder hyperreflexia model assessed as decrease in micturition pressure measured over 30 to 45 mins; assay type: functional, organism-based
[35] = tested on: Rhesus monkey; experiment: Dose normalized fAUC in rhesus monkey at 2 mg/kg, po; assay type: ADME, organism-based, Macaca mulatta; conditions: in vivo
[36] = Fraction unbound in rhesus monkey at 0.5 mg/kg, iv or 2 mg/kg, po; assay type: ADME, organism-based, Macaca mulatta; conditions: in vivo
[37] = target: Voltage-gated inwardly rectifying potassium channel KCNH2 (Homo sapiens, UniProt Q12809); experiment: Binding affinity to human ERG channel
[38] = target: Beta-3 adrenergic receptor (Rattus norvegicus) (UniProt P26255); experiment: Agonist activity at rat beta3 adrenergic receptor expressed in CHO cells assessed as accumulation of cAMP after 30 mins by TR-FRET assay relative to (R)-(-)-isoproterenol; assay type: functional, cell-based
Sequence of Beta-3 adrenergic receptor (Rattus norvegicus) (P26255 whole entry): as the sequence (P26255 whole entry) above

[39] = target: T1, Beta-3 adrenergic receptor; experiment: Agonist activity at human adrenergic beta3 receptor expressed in CHO cells assessed as accumulation of cAMP after 30 mins by TR-FRET assay in presence of 40% serum; assay type: functional, cell-based
Target sequence in this assay (P13945 whole entry): as the sequence (P13945 whole entry, looked up) above

[40] = target: T1, Beta-3 adrenergic receptor; experiment: Agonist activity at human adrenergic beta3 receptor expressed in CHO cells assessed as accumulation of cAMP after 30 mins by TR-FRET assay in presence of 40% serum relative to (R)-(-)-isoproterenol; assay type: functional, cell-based
Target sequence in this assay (P13945 whole entry, looked up): as above

[41] = Half life in rhesus monkey at 0.5 mg/kg, iv or 2 mg/kg, po; assay type: ADME, organism-based, Macaca mulatta; conditions: in vivo
[42] = target: T3, Beta-3 adrenergic receptor (Macaca mulatta, UniProt Q28524); experiment: Agonist activity at rhesus monkey beta3 adrenergic receptor expressed in CHO cells assessed as accumulation of cAMP after 30 mins by TR-FRET assay; assay type: functional, cell-based
T3 sequence (Q28524 whole entry): as the sequence (Q28524 whole entry) above

[43] = target: Beta-3 adrenergic receptor (Rattus norvegicus) (UniProt P26255); experiment: Agonist activity at rat beta3 adrenergic receptor expressed in CHO cells assessed as accumulation of cAMP after 30 mins by TR-FRET assay in presence of 40% serum relative to (R)-(-)-isoproterenol; assay type: functional, cell-based
[44] = tested on: Canis familiaris; experiment: Unbound clearance in dog at 0.5 mg/kg, iv or 2 mg/kg, po; assay type: ADME, organism-based, Canis lupus familiaris; conditions: in vivo
[45] = target: T3, Beta-3 adrenergic receptor; experiment: Agonist activity at rhesus monkey beta3 adrenergic receptor expressed in CHO cells assessed as accumulation of cAMP after 30 mins by TR-FRET assay in presence of 40% serum; assay type: functional, cell-based
[46] = target: Beta-3 adrenergic receptor (Canis lupus familiaris, UniProt O02662); experiment: Agonist activity at dog beta3 adrenergic receptor expressed in CHO cells assessed as accumulation of cAMP after 30 mins by TR-FRET assay; assay type: functional, cell-based
[47] = tested on: Canis familiaris; experiment: Dose normalized fAUC in dog at 2 mg/kg, po; assay type: ADME, organism-based, Canis lupus familiaris; conditions: in vivo
[48] = tested on: Rattus norvegicus; experiment: Increase in detrusor muscle relaxation in iv infused Sprague-Dawley rat acetic acid-induced bladder hyperreflexia model assessed as increase in functional bladder capacity measured over 30 to 45 mins; assay type: organism-based
[49] = tested on: Rattus norvegicus; experiment: Dose normalized fAUC in rat at 2 mg/kg, po; assay type: ADME, organism-based; conditions: in vivo
[50] = target: Beta-3 adrenergic receptor (Macaca mulatta) (UniProt Q28524); experiment: Agonist activity at rhesus monkey beta3 adrenergic receptor expressed in CHO cells assessed as accumulation of cAMP after 30 mins by TR-FRET assay relative to (R)-(-)-isoproterenol; assay type: functional, cell-based
[51] = Inhibition of rat choline transporter
[52] = Fraction unbound in dog at 0.5 mg/kg, iv or 2 mg/kg, po; assay type: ADME, organism-based, Canis lupus familiaris; conditions: in vivo
[53] = Oral bioavailability in rhesus monkey at 2 mg/kg; assay type: ADME, organism-based, Macaca mulatta; conditions: in vivo
[54] = tested on: Rhesus monkey; experiment: Unbound clearance in rhesus monkey at 0.5 mg/kg, iv or 2 mg/kg, po; assay type: ADME, organism-based, Macaca mulatta; conditions: in vivo

CLint scaled [2]: 13 mL/min/kg
AUC/dose [3]: 1500 nM·h/mg/kg
half-life [4]: 6 h
clearance [5]: 77 mL/min/kg
AUC/dose [6]: 110 nM·h/mg/kg
half-life [7]: 3 h
IC50 [8]: 4.8 µM
remaining at 24 h [9]: 92%
CLint scaled [10]: 137 mL/min/kg
CLint scaled [11]: 19 mL/min/kg
bioavailability [12]: 21%
IC50 [13]: > 20 µM
IC50 [14]: 7.1 µM
remaining at 24 h [15]: 72%
max activation [16]: 94%
bioavailability [17]: 100%
remaining at 24 h [18]: 100%
remaining at 24 h [19]: 92%
clearance [20]: 26 mL/min/kg
IC50 [21]: > 20 µM
EC50 [22]: 0.00062 µM
IC50 [23]: > 30 µM
AC50 [24]: 33 µM
CLint scaled [25]: 29 mL/min/kg
Structure (SMILES): O=C(Nc1ccc(C[C@@H]2CC[C@H]([C@H](O)c3ccccc3)N2)cc1)[C@@H]1CCc2cccc(=O)n21
IC50 [1]: > 30 µM

CL free [26]: 180 mL/min/kg
CLint scaled [2]: 34 mL/min/kg
AUC/dose [27]: 300 nM·h/mg/kg
fraction unbound [28]: 0.2
EC50 [29]: 0.531 µM
EC50 [30]: 0.245 µM
AUC/dose [3]: 290 nM·h/mg/kg
max activation [31]: 91%
half-life [4]: 9 h
clearance [32]: 33 mL/min/kg
clearance [5]: 36 mL/min/kg
AUC/dose [6]: 100 nM·h/mg/kg
logD [33]: 1.3
half-life [7]: 2 h
fAUC/dose [35]: 213 nM·h/mg/kg
fraction unbound [36]: 0.71
remaining at 24 h [9]: 95%
max activation [38]: 85%
CLint scaled [10]: 17 mL/min/kg
EC50 [39]: 0.0021 µM
max activation [40]: 98%
half-life [41]: 9 h
EC50 [42]: 0.0025 µM
CLint scaled [11]: 10 mL/min/kg
max activation [43]: 83%
bioavailability [12]: 10%
IC50 [13]: > 20 µM
IC50 [14]: > 10 µM
CL free [44]: 59 mL/min/kg
EC50 [45]: 0.012 µM
EC50 [46]: 0.039 µM
remaining at 24 h [15]: 99%
max activation [16]: 92%
fAUC/dose [47]: 113 nM·h/mg/kg
bioavailability [17]: 91%
fAUC/dose [49]: 20 nM·h/mg/kg
remaining at 24 h [18]: 100%
max activation [50]: 91%
remaining at 24 h [19]: 77%
clearance [20]: 23 mL/min/kg
IC50 [21]: > 20 µM
IC50 [51]: 2.3 µM
EC50 [22]: 0.0027 µM
IC50 [23]: > 30 µM
fraction unbound [52]: 0.39
bioavailability [53]: 29%
CL free [54]: 46 mL/min/kg
AC50 [24]: 42 µM
CLint scaled [25]: 31 mL/min/kg
Structure (SMILES): C[C@@H](C(=O)Nc1ccc(C[C@@H]2CC[C@H]([C@H](O)c3ccccc3)N2)cc1)n1ncccc1=O
IC50 [1]: > 30 µM
Activity [34]: Dose-dependent effect
IC50 [37]: > 30 µM
Activity [48]: Dose-dependent effect
